Source: ChEMBL document CHEMBL5728172, “Pteridine dione monocarboxylate transporter inhibitors” (2020)

Assay: Biological Activity of Selected Compounds of the Invention: Specific Examples of compounds of the invention, with estimated EC50 values determined using an MTT assay for 4-day viability of Raji (Burkitt's) lymphoma cells, a cell line known to highly express MCT1 and to be sensitive to small molecule MCT inhibitors,4 are shown in Table 3. Assay protocols follow those described in the literature.4 Other assays that are not described here but that are standard in the field, such as an assay for competitive inhibition of transport of radiolabeled lactic acid, an MCT substrate, may also be useful in establishing mechanism of action of these compounds.
Conditions: 96 h

CC(C)Cn1c(=O)n(C)c(=O)c2nc(CCCCCO)c(COc3cccc4ncccc34)nc21
EC50: < 50 nM
